pIC50: −log10 of the molar value.
Key:
[1] = target: T1, cardiac myofibrils (myosin ATPase); experiment: Cardiac Myofibril ATPase Assay (counter screen); format: biochemical; details: myofibrils 1.0 mg/mL, KCl omitted
T1 construct: frozen myofibril pellets obtained from cardiac tissue; from tissue
Protocol: (§1) Overview: Myosin ATPase activity is assessed by using a coupled reaction system, in which ADP generated by the myosin ATPase function is coupled to the disappearance of NADH through the pyruvate kinase/lactate dehydrogenase (PK-LDH) system. ATPase activity produces ADP, which is used as a substrate for PK to produce pyruvate and regenerate ATP. The pyruvate is then used as a substrate by LDH to oxidize NADH to NAD+. The rate of the reaction is monitored through the time-dependent disappearance of NADH using absorbance at 340 nm. Inhibition of ATPase activity by the assayed compounds is indicated by a reduced rate of NADH loss, relative to vehicle-treated controls, over the experimental time window. To assess the selectivity of the assayed compounds for skeletal myofibrils, the compounds are counter-screened in cardiac myofibrils.
Example 13: Cardiac Myofibril ATPase Assay
Following example 11, the counter screen was done using frozen myofibril pellets obtained from cardiac tissue. The assay was done in the same manner as above, with the following notable exceptions: the final well concentration of myofibrils was 1.0 mg/mL and KCl was omitted from the recipe.
Compounds of Table 1 to 3 were tested, and results of the assays appear in Tables 5a-5c herein. A=IC50 is less than or equal to 10 μM; B=IC50 is greater than 10 μM and less than 100 μM; C=IC50 is greater than 100 μM; and […].

[2] = target: skeletal myofibrils (myosin ATPase); experiment: Skeletal Myofibril ATPase Assay; format: biochemical
Protocol: FIG. 7 depicts the buffer preparation procedures of Buffer A and Buffer B for the skeletal myofibril ATPase assay described in Example 12. Buffers were stored on ice until use.
Example 12: Skeletal Myofibril ATPase Assay
as §1
Materials: The following stock solutions and reagents were used in the Skeletal Myofibril ATPase Assay:
Stock Solutions of pCa buffer. Combine PIPES, CaCl2, and EGTA solutions with 70 mL of water. Adjust pH to 7.0 and bring final volume to 100 mL.
Skeletal Myofibril ATPase Assay Procedure: BSA, ATP, NADH, PEP, and DTT solutions were thawed at room temperature, then transferred to ice. Pellet-frozen myofibrils were transferred with approximately twice the required volume into a sufficiently large tube and capped. Myofibrils were thawed by rolling in a water bath for approximately 15 min at room temperature and cooled on ice. Buffers A and B were prepared by adjusting volumes as necessary for required number of wells and stored on ice. 0.5 μL of the compounds to be assayed were added into wells. 25 μL of Buffer A was dispensed into the wells, followed by 25 μL of Buffer B. The wells were measured for absorbance at 340 nm, using a kinetic protocol in which the wells are read every 1.5-2 min for 45 min. The slope of the data was approximated by subtracting the minimum absorbance value from the maximum value for each well. This was accomplished either in the SoftMax Pro software or in a spreadsheet program such as Excel. Using GraphPad Prism 8.0, the data was normalized by assigning a value of 100% to the 1% DMSO vehicle wells. Typically, a normalized 0% value was simply assigned to a (Max−Min) value of 0. The normalized data was fit to a Four Parameter Logistic sigmoidal equation, constraining the bottom to be 0 or greater. Compounds of Table 1, 2, and 3 were tested and results of the assay appear in Tables 4a-4c. A=IC50 is less than or equal to 10 μM; B=IC50 is greater than 10 μM and less than 100 μM; C=IC50 is greater than 100 μM.

T1 sequence (P12883 whole entry): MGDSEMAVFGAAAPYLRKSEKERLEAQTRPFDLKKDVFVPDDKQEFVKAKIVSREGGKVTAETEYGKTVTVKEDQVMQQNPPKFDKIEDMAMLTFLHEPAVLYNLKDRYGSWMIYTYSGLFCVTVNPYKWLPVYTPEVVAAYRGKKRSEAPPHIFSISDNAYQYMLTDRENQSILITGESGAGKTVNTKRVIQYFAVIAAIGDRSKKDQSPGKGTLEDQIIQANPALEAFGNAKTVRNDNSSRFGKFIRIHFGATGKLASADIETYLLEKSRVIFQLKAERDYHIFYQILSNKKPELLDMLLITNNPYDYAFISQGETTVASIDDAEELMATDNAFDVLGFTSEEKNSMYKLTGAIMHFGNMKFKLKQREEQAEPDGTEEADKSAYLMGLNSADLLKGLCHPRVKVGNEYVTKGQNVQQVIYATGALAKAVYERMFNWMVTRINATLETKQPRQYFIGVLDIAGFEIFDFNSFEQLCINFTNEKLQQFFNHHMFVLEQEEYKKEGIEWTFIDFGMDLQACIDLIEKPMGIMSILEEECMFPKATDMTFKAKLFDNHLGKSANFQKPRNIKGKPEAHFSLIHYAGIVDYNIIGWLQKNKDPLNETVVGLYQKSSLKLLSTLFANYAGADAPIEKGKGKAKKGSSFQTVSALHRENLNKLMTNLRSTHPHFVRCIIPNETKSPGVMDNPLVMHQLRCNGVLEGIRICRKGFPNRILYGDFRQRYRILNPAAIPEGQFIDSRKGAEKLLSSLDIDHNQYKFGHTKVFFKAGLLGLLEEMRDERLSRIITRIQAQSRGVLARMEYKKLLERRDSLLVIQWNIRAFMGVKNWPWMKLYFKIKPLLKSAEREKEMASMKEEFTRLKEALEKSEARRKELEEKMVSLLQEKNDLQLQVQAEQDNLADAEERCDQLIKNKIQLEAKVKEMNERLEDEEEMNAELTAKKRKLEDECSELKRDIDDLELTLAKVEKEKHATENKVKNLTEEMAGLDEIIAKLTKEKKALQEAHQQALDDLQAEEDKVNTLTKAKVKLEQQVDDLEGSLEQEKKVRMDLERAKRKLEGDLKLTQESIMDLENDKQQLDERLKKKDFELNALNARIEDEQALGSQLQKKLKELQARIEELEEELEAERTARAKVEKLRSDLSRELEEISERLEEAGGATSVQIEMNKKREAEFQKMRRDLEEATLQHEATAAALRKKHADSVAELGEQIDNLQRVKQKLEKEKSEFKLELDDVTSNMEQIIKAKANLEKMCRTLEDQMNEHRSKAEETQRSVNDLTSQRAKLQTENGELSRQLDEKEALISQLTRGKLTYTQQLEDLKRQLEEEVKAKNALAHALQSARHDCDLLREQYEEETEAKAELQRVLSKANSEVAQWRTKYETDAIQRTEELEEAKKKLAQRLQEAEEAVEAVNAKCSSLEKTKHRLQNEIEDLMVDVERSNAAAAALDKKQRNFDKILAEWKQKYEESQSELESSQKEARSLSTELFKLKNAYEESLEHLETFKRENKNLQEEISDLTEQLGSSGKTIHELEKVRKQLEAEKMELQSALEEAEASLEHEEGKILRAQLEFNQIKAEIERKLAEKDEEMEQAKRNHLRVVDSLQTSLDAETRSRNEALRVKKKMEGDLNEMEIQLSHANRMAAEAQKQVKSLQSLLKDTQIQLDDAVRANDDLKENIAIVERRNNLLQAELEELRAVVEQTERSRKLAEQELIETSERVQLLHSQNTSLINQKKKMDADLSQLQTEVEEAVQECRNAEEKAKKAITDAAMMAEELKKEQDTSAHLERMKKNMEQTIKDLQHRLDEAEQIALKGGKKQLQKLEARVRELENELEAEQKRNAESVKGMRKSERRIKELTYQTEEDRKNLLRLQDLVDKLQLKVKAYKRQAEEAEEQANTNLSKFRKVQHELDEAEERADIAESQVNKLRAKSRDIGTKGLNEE
T1 sequence (P08590 whole entry partner): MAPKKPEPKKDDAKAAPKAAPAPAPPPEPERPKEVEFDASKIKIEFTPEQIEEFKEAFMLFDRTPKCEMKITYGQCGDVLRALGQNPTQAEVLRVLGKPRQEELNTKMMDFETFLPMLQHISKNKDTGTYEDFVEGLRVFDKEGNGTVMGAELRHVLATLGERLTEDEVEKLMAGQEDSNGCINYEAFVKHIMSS
T1 sequence (P10916 whole entry partner): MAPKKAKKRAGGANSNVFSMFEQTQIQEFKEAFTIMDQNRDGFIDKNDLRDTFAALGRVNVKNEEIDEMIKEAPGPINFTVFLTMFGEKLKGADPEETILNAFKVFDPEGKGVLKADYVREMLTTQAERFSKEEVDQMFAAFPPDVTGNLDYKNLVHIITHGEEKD

Row | Structure (SMILES) | pIC50 ([1]; Table 5C) | pIC50 ([2]; Table 4C) | pIC50 ([2]; Table 4A) | other results
1 | CNC(=O)Cn1nc(-c2ccc(OC)cc2)ccc1=O [IIIa-21, 2-(3-(4-methoxyphenyl)-6-oxopyridazin-1(6H)-yl)-N-methylacetamide] | < 4.00 | 4.00 to 5.00 |  | 
2 | COc1ccc(-c2ccc(=O)n(CC(=O)Nc3cc(Cl)ccc3Cl)n2)c(F)c1 [IIIb-13, N-(2,5-dichlorophenyl)-2-(3-(2-fluoro-4-methoxyphenyl)-6-oxopyridazin-1(6H)-yl)acetamide] | < 4.00 | > 5.00 |  | 
3 | COc1ccc(-c2ccc(=O)n(CC(=O)NC(C)CCc3ccccc3)n2)cc1 (centres unmarked) [IIIb-30, 2-(3-(4-methoxyphenyl)-6-oxopyridazin-1(6H)-yl)-N-(4-phenylbutan-2-yl)acetamide] | 4.00 to 5.00 | 4.00 to 5.00 |  | 
4 | COc1ccc(-c2ccc(=O)n(CC(=O)NC(C)C)n2)cc1 [IIIb-18, N-isopropyl-2-(3-(4-methoxyphenyl)-6-oxopyridazin-1(6H)-yl)acetamide] | < 4.00 | 4.00 to 5.00 |  | 
5 | COc1ccc(-c2ccc(=O)n(CC(=O)NC3CC3)n2)c(F)c1 [IIIb-58, N-cyclopropyl-2-(3-(2-fluoro-4-methoxyphenyl)-6-oxopyridazin-1(6H)-yl)acetamide] | < 4.00 | < 4.00 |  | 
6 | CCNC(=O)Cn1nc(-c2ccc(OC(F)F)cc2)cc(C)c1=O [II-21, 2-(3-(4-(difluoromethoxy)phenyl)-5-methyl-6-oxopyridazin-1(6H)-yl)-N-ethylacetamide] |  |  |  | pIC50 ([1]; Table 5B): < 4.00; pIC50 ([2]; Table 4B): < 4.00
7 | CCc1cccc(NC(=O)Cn2nc(-c3ccc(C)cc3)ccc2=O)c1 [IIIc-1, N-(3-ethylphenyl)-2-(6-oxo-3-(p-tolyl)pyridazin-1(6H)-yl)acetamide] | < 4.00 | > 5.00 |  | 
8 | COc1ccc(-c2ccc(=O)n(CC(=O)NC[C@@H]3CC4C=CC3C4)n2)cc1 (stereo partly drawn) [IIIb-39, N-(((2R)-bicyclo[2.2.1]hept-5-en-2-yl)methyl)-2-(3-(4-methoxyphenyl)-6-oxopyridazin-1(6H)-yl)acetamide] | < 4.00 | < 4.00 |  | 
9 | COc1ccccc1NC(=O)Cn1nc(-c2ccccc2)ccc1=O [IIIc-58, N-(2-methoxyphenyl)-2-(6-oxo-3-phenylpyridazin-1(6H)-yl)acetamide] | < 4.00 | 4.00 to 5.00 |  | 
10 | COc1ccc(-c2ccc(=O)n(CC(=O)NCC3CCCCC3)n2)cc1 [IIIa-4] | < 4.00 | > 5.00 |  | 
11 | COc1ccc(-c2ccc(=O)n(CC(=O)NCc3cc(F)ccc3Cl)n2)cc1 [IIIa-7, N-(2-chloro-5-fluorobenzyl)-2-(3-(4-methoxyphenyl)-6-oxopyridazin-1(6H)-yl)acetamide] | < 4.00 | > 5.00 |  | 
12 | Cc1ccc(-c2ccc(=O)n(CC(=O)NC3CCCCCC3)n2)cc1 [IIIc-4, N-cycloheptyl-2-(6-oxo-3-(p-tolyl)pyridazin-1(6H)-yl)acetamide] | < 4.00 | 4.00 to 5.00 |  | 
13 | O=C(Cn1nc(-c2ccc(OCC(F)(F)F)cc2)ccc1=O)NCc1ccc(O)nc1 [II-20, N-((6-hydroxypyridin-3-yl)methyl)-2-(6-oxo-3-(4-(2,2,2-trifluoroethoxy)phenyl)pyridazin-1(6H)-yl)acetamide] |  |  |  | pIC50 ([1]; Table 5B): < 4.00; pIC50 ([2]; Table 4B): < 4.00
14 | CC[C@H](C)NC(=O)Cn1nc(-c2ccc(Cl)cc2)ccc1=O [IIIc-30, (S)-N-(sec-butyl)-2-(3-(4-chlorophenyl)-6-oxopyridazin-1(6H)-yl)acetamide] | < 4.00 | 4.00 to 5.00 |  | 
15 | CC[C@H](C)NC(=O)Cn1nc(-c2ccccc2)ccc1=O [IIIc-57, (S)-N-(sec-butyl)-2-(6-oxo-3-phenylpyridazin-1(6H)-yl)acetamide] | < 4.00 | 4.00 to 5.00 |  | 
16 | COc1ccc(-c2ccc(=O)n(CC(=O)NCc3cnoc3)n2)cc1 [IIIa-31, N-(isoxazol-4-ylmethyl)-2-(3-(4-methoxyphenyl)-6-oxopyridazin-1(6H)-yl)acetamide] | < 4.00 | < 4.00 |  | 
17 | CCNC(=O)Cn1nc(-c2ccc(N3CC4CC(C3)O4)nc2)ccc1=O [Compound I-43, 2-(3-(6-(6-oxa-3-azabicyclo[3.1.1]heptan-3-yl)pyridin-3-yl)-6-oxopyridazin-1(6H)-yl)-N-ethylacetamide] |  |  | 4.00 to 5.00 | 
18 | CC(=O)Nc1ccc(-c2ccc(=O)n(CC(=O)NCc3ccccc3Cl)n2)cc1 [II-8, 2-(3-(4-acetamidophenyl)-6-oxopyridazin-1(6H)-yl)-N-(2-chlorobenzyl) acetamide] |  |  |  | pIC50 ([2]; Table 4B): > 5.00

Now from value to compound, other results behind:

Row | pIC50 ([1]; Table 5C) | pIC50 ([2]; Table 4C) | pIC50 ([2]; Table 4A) | Structure (SMILES) | other results
19 |  |  | > 5.00 | O=C(Cn1nc(-c2cnc(OCC(F)(F)F)nc2)ccc1=O)NC1CCC1 [Compound I-71, N-cyclobutyl-2-(6-oxo-3-(2-(2,2,2-trifluoroethoxy)pyrimidin-5-yl)pyridazin-1(6H)-yl)acetamide] | pIC50 ([1]; Table 5A): < 4.00
20 |  |  | 4.00 to 5.00 | COc1ccc(-c2ccc(=O)n(CC(=O)NC(C)C)n2)cn1 [Compound I-16, N-isopropyl-2-(3-(6-methoxypyridin-3-yl)-6-oxopyridazin-1(6H)-yl)acetamide] | pIC50 ([1]; Table 5A): < 4.00
21 |  |  | > 5.00 | O=C(Cn1nc(-c2ccc(OCC(F)(F)F)nc2)ccc1=O)NC1CCC1 [Compound I-56, N-cyclobutyl-2-(6-oxo-3-(6-(2,2,2-trifluoroethoxy)pyridin-3-yl)pyridazin-1(6H)-yl)acetamide] | pIC50 ([1]; Table 5A): 4.00 to 5.00
22 |  |  | < 4.00 | CCNC(=O)Cn1nc(-c2ccc(N3CC4(COC4)C3)nc2)ccc1=O [Compound I-31, 2-(3-(6-(2-oxa-6-azaspiro[3.3]heptan-6-yl)pyridin-3-yl)-6-oxopyridazin-1(6H)-yl)-N-ethylacetamide] | pIC50 ([1]; Table 5A): < 4.00
23 |  |  | > 5.00 | CCNC(=O)Cn1nc(-c2cnc(OCC(F)(F)F)nc2)ccc1=O [Compound I-8, N-ethyl-2-(6-oxo-3-(2-(2,2,2-trifluoroethoxy)pyrimidin-5-yl)pyridazin-1(6H)-yl)acetamide] | pIC50 ([1]; Table 5A): < 4.00
24 |  |  | 4.00 to 5.00 | CCNC(=O)Cn1nc(-c2ccc(N3CC(C)(C)C3)nc2)ccc1=O [Compound I-18, 2-(3-(6-(3,3-dimethylazetidin-1-yl)pyridin-3-yl)-6-oxopyridazin-1(6H)-yl)-N-ethylacetamide] | pIC50 ([1]; Table 5A): < 4.00
25 |  |  | < 4.00 | CCNC(=O)Cn1nc(-c2ccc(OC(C)C)nc2)ccc1=O [Compound I-27, N-ethyl-2-(3-(6-isopropoxypyridin-3-yl)-6-oxopyridazin-1(6H)-yl)acetamide] | pIC50 ([1]; Table 5A): < 4.00
26 |  |  | < 4.00 | Cn1nccc1CNC(=O)Cn1nc(-c2ccc(OC(F)F)nc2)ccc1=O [Compound I-30, 2-(3-(6-(difluoromethoxy)pyridin-3-yl)-6-oxopyridazin-1(6H)-yl)-N-((1-methyl-1H-pyrazol-5-yl)methyl)acetamide] | pIC50 ([1]; Table 5A): < 4.00
27 |  |  | 4.00 to 5.00 | CCNC(=O)Cn1nc(-c2ccc(Oc3ccc(F)cc3)nc2)ccc1=O [Compound I-21, N-ethyl-2-(3-(6-(4-fluorophenoxy)pyridin-3-yl)-6-oxopyridazin-1(6H)-yl)acetamide] | pIC50 ([1]; Table 5A): < 4.00
28 |  |  | > 5.00 | CCNC(=O)Cn1nc(-c2ccc(NC)nc2)ccc1=O [Compound I-47, N-ethyl-2-(3-(6-(methylamino)pyridin-3-yl)-6-oxopyridazin-1(6H)-yl)acetamide] | 
29 |  |  | > 5.00 | CCNC(=O)Cn1nc(-c2ccc(N3CCCC3C(F)(F)F)nc2)ccc1=O (centres unmarked) [Compound I-48, N-ethyl-2-(6-oxo-3-(6-(2-(trifluoromethyl)pyrrolidin-1-yl)pyridin-3-yl)pyridazin-1(6H)-yl)acetamide] | 
30 |  |  | > 5.00 | CC[C@H](C)NC(=O)Cn1nc(-c2ccc(OC(F)F)nc2)ccc1=O [Compound I-67, (S)-N-(sec-butyl)-2-(3-(6-(difluoromethoxy)pyridin-3-yl)-6-oxopyridazin-1(6H)-yl)acetamide] | 
31 |  |  | > 5.00 | O=C(Cn1nc(-c2ccc(NC34CC(C3)C4)nc2)ccc1=O)NC12CC(C1)C2 [Compound I-46, N-(bicyclo[1.1.1]pentan-1-yl)-2-(3-(6-(bicyclo[1.1.1]pentan-1-ylamino)pyridin-3-yl)-6-oxopyridazin-1(6H)-yl)acetamide] | 

— patent US12415794B2 (Edgewise Therapeutics, Inc., priority 2018, dated 2025)
